Key:
Assay type in all cases: physicochemical
[1] = DNP (Overhauser) enhancement and DNP-curve relaxivity at infinite concentration and power; details: water
Excerpt: The calibration data are generated by determining Overhauser enhancement values for the radical in the selected body fluid, at the selected temperature and at a range of oxygen (and preferably also radical) concentrations. The intrinsic esr relaxation times for the radical can be determined, under the same conditions, using a conventional esr spectrometer equipped with a temperature controller, with oxygen concentration being determined using the method of Ravin et al J. Appl. Physiol. 18:784-790(1964), a method known to produce accurate and reproducible results.
(§1) The following four water soluble, single ESR line trityls were investigated by NMRD, Dynamic Nuclear Polarisation (DNP) and ESR (Examples 1-4).
(§2) The relaxivity and DNP enhancement data were measured in water, plasma and blood at 23° C. and 37° C. The results are set out in Tables 1 and 2.

[2] = Electron spin relaxation rates (radical concentration dependent) from CW ESR spectra and DNP data; details: water (isotonic saline)
Experimental: as §1
Electron spin relaxation rates were measured by analysis of CW ESR spectra and DNP data at 23° C. and 37° C. in water, isotonic saline, plasma and blood for the deuterated hydroxy trityl and in water and isotonic saline for the perdeuterated and symmetric trityl.

[3] = Relaxivity from NMRD profiles in water, plasma and blood; details: water
Experimental: as §1, §2

[4] = Oximetric calibration by X-band ESR (9 GHz), oxygen broadening; details: plasma, 37° C., X-band 9 GHz
Experimental: Oximetric calibrations were made for the perdeuterated trityl and the non-deuterated hydroxy trityl in water and plasma at 37° C. with ESR in the X-band at 9 GHz. The experiment was performed on a Varian X-band spectrometer with temperature controller. A thermocouple was placed near the microwave cavity for accurate determination of the temperature. The samples were placed in thin wall teflon capillaries for rapid equilibration with a flowing gas mixture. A Sensormedics Oxygen Analyzer OM-11 was used to determine the oxygen percentage in the flowing gas. The gas pressure for temperature control and oxygenation was maintained at 20 psi. The linewidth and the saturation of the electron spin resonance was measured. Fremys salt was chosen as a B1 calibration standard and a conversion factor of 38.6±0.2 mG/mW was obtained.
The results are shown in FIGS. 2 and 3 which give the linewidth as a function of oxygen concentration. The oxygen broadening of the perdeuterated trityl in plasma at 37° C. is 583 mG/mMo2 .

A. (enhancement at infinite concentration and power) [1]: 267
2(3γe T1e)^-1, concentration dependent relaxation rate (peak-to-peak) ([2]; 23° C.): 10.6 ± 0.8 mg/mM
2(3γe T2e)^-1, concentration dependent relaxation rate (peak-to-peak) ([2]; 23° C.): 24.3 ± 0.8 mg/mM
2(3γe T1e)^-1, concentration dependent relaxation rate (peak-to-peak) ([2]; 37° C.): 12.9 ± 0.3 mg/mM
2(3γe T2e)^-1, concentration dependent relaxation rate (peak-to-peak) ([2]; 37° C.): 28.2 ± 1.2 mg/mM
Relaxivity ([3]; 23° C.): 0.19 mM⁻¹ s⁻¹
Relaxivity ([3]; 37° C.): 0.14 mM⁻¹ s⁻¹
oxygen broadening [4]: 583 mG/mMo2
Substance: Bis-(8-sodium carboxylate-2,2,6,6-tetrakis-(^2 H3 methyl)-benzo[1,2-d:4,5-d']-bis(1,3)-dithiole-4-yl)-mono-(8-sodium carboxylate-2,2,6,6-tetrakis-(^2 H3 -methyl)-benzo[1,2-d:4,5-d']-bis(1,3)-dioxole-4-yl) methyl [perdeuterated trityl]
